# Activity calls are given as the source filed them. The rule behind the calls is not given here.
# Target: T1, Cellular retinoic acid-binding protein 2 (Homo sapiens) (UniProt P29373)
# T1 sequence (whole entry): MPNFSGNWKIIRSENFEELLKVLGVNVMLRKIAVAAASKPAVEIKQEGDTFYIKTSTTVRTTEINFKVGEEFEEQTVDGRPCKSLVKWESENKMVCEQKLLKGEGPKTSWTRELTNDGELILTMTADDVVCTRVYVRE
# Assay: Displacement of DC271 from CRABP2 (unknown origin) at 200 to 1600 nM by fluorescence assay
row,SMILES,inhibition
1,CC1=C(/C=C/C(C)=C/C=C/C(C)=C/C(=O)O)C(C)(C)CCC1,Active
2,c1ccc2ncccc2c1,inactive
3,O=C(O)c1ccccc1,inactive
4,CC1=C(/C=C/C(C)=C/C=C/C(C)=C\C(=O)O)C(C)(C)CCC1,inactive
5,CC1=C(/C=C/C(C)=C\C=C\C(C)=C\C(=O)O)C(C)(C)CCC1,Active

# Target: T2, Cellular retinoic acid-binding protein 2 (Homo sapiens, UniProt P29373)
# T2 sequence (P29373 whole entry): T1 sequence (whole entry)
# Assay: Displacement of DC271 from CRABP2 (unknown origin) by fluorescence assay
row,SMILES,Kd
1,CC1(C)CCC(C)(C)c2cc(C#Cc3ccc(C(=O)O)cc3)ccc21,160 nM
